Reference: article PMC8083960, “Kanamycin-Mediated Conformational Dynamics of Escherichia coli Outer Membrane Protein TolC” (Frontiers in Molecular Biosciences, 2021)
pKd: −log10 of the molar value.

Target: T1, TolC (Escherichia coli, UniProt P02930)
T1 construct: ~54 kDa by SDS-PAGE and MALDI; crystal structure cited as trimer, 471 residues per monomer
Test: isothermal titration calorimetry
Format: binding
Text: isothermal titration calorimetry on TolC

T1 sequence (P02930 23-493): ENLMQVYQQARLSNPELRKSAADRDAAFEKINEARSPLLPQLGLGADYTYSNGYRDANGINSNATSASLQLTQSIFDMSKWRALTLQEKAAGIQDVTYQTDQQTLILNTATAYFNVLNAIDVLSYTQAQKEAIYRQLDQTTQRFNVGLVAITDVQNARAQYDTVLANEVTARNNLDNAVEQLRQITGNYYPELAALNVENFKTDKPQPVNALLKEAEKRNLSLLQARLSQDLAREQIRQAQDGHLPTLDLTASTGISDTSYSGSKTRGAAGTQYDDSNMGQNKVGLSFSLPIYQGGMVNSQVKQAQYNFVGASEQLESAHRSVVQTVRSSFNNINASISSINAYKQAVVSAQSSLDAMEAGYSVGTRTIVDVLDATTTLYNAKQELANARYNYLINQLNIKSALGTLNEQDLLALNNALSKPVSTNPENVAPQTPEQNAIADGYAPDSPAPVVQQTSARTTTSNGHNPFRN

`NC[C@H]1O[C@H](O[C@H]2[C@H](O)[C@@H](O[C@H]3O[C@H](CO)[C@@H](O)[C@H](N)[C@H]3O)[C@H](N)C[C@@H]2N)[C@H](O)[C@@H](O)[C@@H]1O` [kanamycin] showed a pKd of 4.37.
